Reference: patent publication US12060347B2 (BRISTOL-MYERS SQUIBB COMPANY, priority 2016, dated 2024)
pIC50: −log10 of the molar value.

What follows are molecules tested against T1, human PAR4 (Homo sapiens, UniProt Q96RI0) (assay: PAR4 FLIPR assay: antagonism of agonist-peptide-induced calcium mobilization in PAR4-expressing HEK293 cells). Settings: H-Ala-Phe(4-F)-[…]NH2-induced intracellular calcium mobilization, 11-point curves.
T1 construct: expressed in transfected cells; host or cells: HEK293 PAR4 Clone 1.2A (BMS Arctic ID 383940)
T1 sequence (Q96RI0 18-385): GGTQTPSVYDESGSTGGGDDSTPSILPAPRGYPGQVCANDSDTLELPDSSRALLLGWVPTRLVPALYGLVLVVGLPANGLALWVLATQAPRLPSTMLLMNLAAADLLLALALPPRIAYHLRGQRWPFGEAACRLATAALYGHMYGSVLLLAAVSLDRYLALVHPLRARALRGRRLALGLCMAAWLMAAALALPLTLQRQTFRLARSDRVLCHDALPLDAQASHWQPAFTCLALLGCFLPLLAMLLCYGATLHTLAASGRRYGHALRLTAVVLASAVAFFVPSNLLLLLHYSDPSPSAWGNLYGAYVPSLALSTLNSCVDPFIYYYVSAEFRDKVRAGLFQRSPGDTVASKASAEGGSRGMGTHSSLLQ
Assay type: cell-based

pIC50	SMILES
6.77	COc1cnc2c(-c3nc4c(C)cc(OCCNS(=O)(=O)c5ccc(F)cc5)cc4s3)cc(CCO)cc2n1 [Example 237, 4-fluoro-N-(2-((2-(7-(2-hydroxyethyl)-2-methoxyquinoxalin-5-yl)-4-methylbenzo[d]thiazol-6-yl)oxy)ethyl)benzenesulfonamide]
8.70	COc1cnc2c(-c3nc4cc(F)c(O[C@@H](C)[C@@H](C)OC(=O)Nc5cncc(C)c5)cc4s3)cc(C)cc2n1 [Example 419, (2R,3S)-3-((5-fluoro-2-(2-methoxy-7-methylquinoxalin-5-yl)benzo[d]thiazol-6-yl)oxy)butan-2-yl (5-methylpyridin-3-yl)carbamate]
8.89	COc1cnc2c(-c3nc4cc(F)c(OC[C@@H](C)OC(=O)Nc5cnc(C(C)(C)O)nc5)cc4s3)cc(C)cc2n1 [Example 497, (R)-1-((5-fluoro-2-(2-methoxy-7-methylquinoxalin-5-yl)benzo[d]thiazol-6-yl)oxy)propan-2-yl (2-(2-hydroxypropan-2-yl)pyrimidin-5-yl)carbamate]
9.10	COc1cnc2c(-c3nc4cc(F)c(OC[C@@H](C)OC(=O)Nc5ccnc(C(N)=O)c5)cc4s3)cc(C)cc2n1 [Example 444, (R)-1-((5-fluoro-2-(2-methoxy-7-methylquinoxalin-5-yl)benzo[d]thiazol-6-yl)oxy)propan-2-yl (2-carbamoylpyridin-4-yl)carbamate]
8.92	COCc1cnc2c(-c3nc4c(C)c(C)c(OCC(=O)OC)cc4s3)cc(C)cc2n1 [Example 296, methyl 2-((2-(2-(methoxymethyl)-7-methylquinoxalin-5-yl)-4,5-dimethylbenzo[d]thiazol-6-yl)oxy)acetate]
8.38	COc1cnc2c(-c3nc4cc(F)c(O[C@@H](C)[C@@H](C)OC(=O)Nc5ccc(C(F)(F)F)nc5)cc4s3)cc(Cl)cc2c1 [Example 783, (2R,3S)-3-((2-(6-chloro-3-methoxyquinolin-8-yl)-5-fluorobenzo[d]thiazol-6-yl)oxy)butan-2-yl (6-(trifluoromethyl)pyridin-3-yl)carbamate]
8.57	COc1cnc2c(-c3nc4c(C(O)C(C)(C)C)cc(OCCOC(=O)Nc5cncc(C#N)c5)cc4s3)cc(C)cc2n1 (stereo not drawn) [Example 638, 2-((4-(1-hydroxy-2,2-dimethylpropyl)-2-(2-methoxy-7-methylquinoxalin-5-yl)benzo[d]thiazol-6-yl)oxy)ethyl (5-cyanopyridin-3-yl)carbamate]
8.35	COc1cnc2c(-c3nc4cc(F)c(OC[C@@H](C)OC(=O)Nc5cnc(OC[C@@H](C)O)nc5)nc4s3)cc(C)cc2n1 [Example 688, (R)-1-((6-fluoro-2-(2-methoxy-7-methylquinoxalin-5-yl)thiazolo[5,4-b]pyridin-5-yl)oxy) propan-2-yl (2-((R)-2-hydroxypropoxy)pyrimidin-5-yl)carbamate]
8.28	COc1cnc2c(-c3nc4cc(F)c(OC[C@@H](C)OC(=O)Nc5ccc(C(=O)N(C)CCO)nc5)cc4s3)cc(C)cc2n1 [Example 471, (R)-1-((5-fluoro-2-(2-methoxy-7-methylquinoxalin-5-yl)benzo[d]thiazol-6-yl)oxy)propan-2-yl (6-((2-hydroxyethyl)(methyl)carbamoyl)pyridin-3-yl)carbamate]
7.19	Cc1cc(-c2nc3cc(F)c(O[C@@H](C)[C@@H](C)OC(=O)Nc4cnc(C)nc4)cc3s2)c2ncc(C(N)=O)nc2c1 [Example 613, (2R,3S)-3-((2-(2-carbamoyl-7-methylquinoxalin-5-yl)-5-fluorobenzo[d]thiazol-6-yl)oxy)butan-2-yl (2-methylpyrimidin-5-yl)carbamate]
8.70	COCc1cnc2c(-c3nc4c(C)cc(OCCNC(=O)OCc5ccccc5)cc4s3)cc(C)cc2n1 [Example 92, Benzyl 2-(2-(2-(methoxymethyl)-7-methylquinoxalin-5-yl)-4-methylbenzo[d]thiazol-6-yloxy)ethylcarbamate]
8.80	COc1cnc2c(-c3nc4cc(F)c(O[C@@H](C)[C@@H](C)OC(=O)Nc5ccnc(CCO)c5)nc4s3)cc(C)cc2n1 [Example 717, (2R,3S)-3-((6-fluoro-2-(2-methoxy-7-methylquinoxalin-5-yl)thiazolo[5,4-b]pyridin-5-yl)oxy)butan-2-yl (2-(2-hydroxyethyl)pyridin-4-yl)carbamate]
7.96	COc1cnc2c(-c3nc4cc(F)c(OC[C@@H](C)OC(=O)Nc5ccc(C(=O)N(C)CC(C)(C)O)nc5)cc4s3)cc(C)cc2n1 [Example 474, (R)-1-((5-fluoro-2-(2-methoxy-7-methylquinoxalin-5-yl)benzo[d]thiazol-6-yl)oxy)propan-2-yl (6-((2-hydroxy-2-methylpropyl)(methyl)carbamoyl)pyridin-3-yl)carbamate]
9.40	CCOc1cnc2c(-c3nc4cc(F)c(O[C@@H](C)[C@@H](C)OC(=O)Nc5cnc(C)nc5)cc4s3)cc(C)cc2n1 [Example 389, (2R,3S)-3-((2-(2-ethoxy-7-methylquinoxalin-5-yl)-5-fluorobenzo[d]thiazol-6-yl)oxy)butan-2-yl (2-methylpyrimidin-5-yl)carbamate]
9.22	COc1cnc2c(-c3nc4cc(F)c(O[C@@H](C)[C@@H](C)OC(=O)Nc5ccc(C(=O)N6CC[C@H](CO)C6)nc5)cc4s3)cc(C)cc2n1 [Example 482, (2R,3S)-3-((5-fluoro-2-(2-methoxy-7-methylquinoxalin-5-yl)benzo[d]thiazol-6-yl)oxy)butan-2-yl (6-((S)-3-(hydroxymethyl)pyrrolidine-1-carbonyl)pyridin-3-yl)carbamate]
9.00	COc1cnc2c(-c3nc4cc(F)c(OC[C@@H](C)OC(=O)Nc5ccc(C(=O)N6CCC[C@H](O)C6)nc5)cc4s3)cc(C)cc2n1 [Example 484, (R)-1-((5-fluoro-2-(2-methoxy-7-methylquinoxalin-5-yl)benzo[d]thiazol-6-yl)oxy)propan-2-yl (6-((S)-3-hydroxypiperidine-1-carbonyl)pyridin-3-yl)carbamate]
9.40	COc1cnc2c(-c3nc4cc(F)c(O[C@@H](C)[C@@H](C)OC(=O)Nc5cnc(NCC(C)(C)O)nc5)cc4s3)cc(C)cc2n1 [Example 606, (2R,3S)-3-((5-fluoro-2-(2-methoxy-7-methylquinoxalin-5-yl)benzo[d]thiazol-6-yl)oxy)butan-2-yl (2-((2-hydroxy-2-methylpropyl)amino)pyrimidin-5-yl)carbamate]
8.77	COc1cnc2c(-c3nc4cc(F)c(O[C@@H](C)[C@@H](C)OC(=O)Nc5cnc(OC)nc5)cc4s3)cc(Cl)cc2n1 [Example 820, (2R,3S)-3-((2-(7-chloro-2-methoxyquinoxalin-5-yl)-5-fluorobenzo[d]thiazol-6-yl)oxy)butan-2-yl (2-methoxypyrimidin-5-yl)carbamate]
7.64	COc1cnc2c(-c3cc4ccccc4o3)cc(C)cc2n1 [Example 175, 5-(benzofuran-2-yl)-2-methoxy-7-methylquinoxaline]
9.52	COc1cnc2c(-c3nc4cc(F)c(O[C@@H](C)[C@@H](C)OC(=O)Nc5ccc(C(N)=O)nc5)nc4s3)cc(C)cc2n1 [Example 754, (2R,3S)-3-((6-fluoro-2-(2-methoxy-7-methylquinoxalin-5-yl)thiazolo[5,4-b]pyridin-5-yl)oxy)butan-2-yl (6-carbamoylpyridin-3-yl)carbamate]
7.55	Cc1cc(-c2nc3cccc(CNS(=O)(=O)c4ccccc4)c3s2)c2ncc(OC(F)F)nc2c1 [Example 66, N-((2-(2-(difluoromethoxy)-7-methylquinoxalin-5-yl)benzo[d]thiazol-7-yl)methyl)benzenesulfonamide]
8.59	COc1cc(C(O)C(F)(F)F)c2nc(-c3cc(C)cc4nc(OC)cnc34)sc2c1 (single isomer, unassigned) [Example 633, 2,2,2-trifluoro-1-(6-methoxy-2-(2-methoxy-7-methylquinoxalin-5-yl)benzo[d]thiazol-4-yl)ethanol]
8.66	COc1cnc2c(-c3nc4cc(F)c(O[C@@H](C)[C@@H](C)OC(=O)Nc5cncc(C#N)c5)cc4s3)cc(Cl)cc2c1 [Example 786, (2R,3S)-3-((2-(6-chloro-3-methoxyquinolin-8-yl)-5-fluorobenzo[d]thiazol-6-yl)oxy)butan-2-yl (5-cyanopyridin-3-yl)carbamate]
8.66	COc1cnc2c(-c3nc4cc(F)c(OC[C@@H](C)OC(=O)Nc5ccc(C(=O)NCC6(CO)COC6)nc5)cc4s3)cc(C)cc2n1 [Example 470, (R)-1-((5-fluoro-2-(2-methoxy-7-methylquinoxalin-5-yl)benzo[d]thiazol-6-yl)oxy)propan-2-yl (6-(((3-(hydroxymethyl)oxetan-3-yl)methyl)carbamoyl)pyridin-3-yl)carbamate]
8.89	COCc1cnc2c(-c3nc4c(C)c(F)c(OCCO)cc4s3)cc(C)cc2n1 [Example 289, 2-((5-fluoro-2-(2-(methoxymethyl)-7-methylquinoxalin-5-yl)-4-methylbenzo[d]thiazol-6-yl)oxy)ethanol]
8.85	COc1cc(C(O)C(C)(C)C)c2nc(-c3cc(C#N)cc4nc(OC)cnc34)sc2c1 (stereo not drawn) [Example 639, 8-(4-(1-hydroxy-2,2-dimethylpropyl)-6-methoxybenzo[d]thiazol-2-yl)-3-methoxyquinoxaline-6-carbonitrile]
8.96	COc1cnc2c(-c3nc4cc(F)c(O[C@@H](C)[C@@H](C)OC(=O)Nc5cnc(C)nc5)cc4s3)cc(C#N)cc2c1 [Example 655, (2R,3S)-3-((2-(6-cyano-3-methoxyquinolin-8-yl)-5-fluorobenzo[d]thiazol-6-yl)oxy)butan-2-yl (2-methylpyrimidin-5-yl)carbamate]
